Test system: 422866-222-R5-J1-PDC complex spheroids viability
Test: Anticancer human tumor 422866-222-R5-J1-PDC patient-derived pancreatic adenocarcinoma cell line growth inhibition [RAS]
Conditions: for IC50: curve of first compound; for viability, T/C: stronger effect = lower value
Summary of the method: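 Tumour cells grown as complex spheroids with HUVEC endothelial cells and mesenchymal stem cells, treated with RAS pathway inhibitor combinations. Each agent spans half-log steps from near clinical Cmax, or 10 microM where Cmax is unknown.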
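Note: spheroids exposed to compounds for 7 days.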
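Throughout, for viability, T/C: 100% = DMSO vehicle control viability.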

IC50 (second compound 0.000949 µM): < 0.949 nM
IC50 (second compound 0.003 µM): < 0.949 nM
IC50 (second compound 0.00949 µM): < 0.949 nM
IC50 (second compound 0.03 µM): < 0.949 nM
IC50 (second compound 0.0949 µM): < 0.949 nM
IC50 (second compound 0.3 µM): < 0.949 nM
Compound: CC1(C)CCC(Nc2ncc(C(F)(F)F)c(-c3c[nH]c4c(P(C)(C)=O)c(C#N)ccc34)n2)CN1 (configuration not stated) + CCn1c(-c2cccnc2C(C)OC)c2c3cc(ccc31)N1CCOC(CC(NC(=O)C(C(C)C)N(C)C(=O)C3(F)CCN(C(=O)C#CC(C)(C)N(C)C)CC3)C(=O)N3CCCC(N3)C(=O)OCC(C)(C)C2)C1
viability, T/C (second compound 0.000949 µM, first compound 0.000949 µM): 27.9%
viability, T/C (second compound 0.000949 µM, first compound 0.003 µM): 27%
viability, T/C (second compound 0.000949 µM, first compound 0.00949 µM): 30.9%
viability, T/C (second compound 0.000949 µM, first compound 0.03 µM): 31.1%
viability, T/C (second compound 0.000949 µM, first compound 0.0949 µM): 31%
viability, T/C (second compound 0.000949 µM, first compound 0.3 µM): 32.6%
viability, T/C (second compound 0.003 µM, first compound 0.000949 µM): 25.2%
viability, T/C (second compound 0.003 µM, first compound 0.003 µM): 27%
viability, T/C (second compound 0.003 µM, first compound 0.00949 µM): 27.6%
viability, T/C (second compound 0.003 µM, first compound 0.03 µM): 24.8%
viability, T/C (second compound 0.003 µM, first compound 0.0949 µM): 28.6%
viability, T/C (second compound 0.003 µM, first compound 0.3 µM): 26.9%
viability, T/C (second compound 0.00949 µM, first compound 0.000949 µM): 24.1%
viability, T/C (second compound 0.00949 µM, first compound 0.003 µM): 24.4%
viability, T/C (second compound 0.00949 µM, first compound 0.00949 µM): 26.1%
viability, T/C (second compound 0.00949 µM, first compound 0.03 µM): 26.2%
viability, T/C (second compound 0.00949 µM, first compound 0.0949 µM): 26.1%
viability, T/C (second compound 0.00949 µM, first compound 0.3 µM): 27.2%
viability, T/C (second compound 0.03 µM, first compound 0.000949 µM): 24.2%
viability, T/C (second compound 0.03 µM, first compound 0.003 µM): 25.8%
viability, T/C (second compound 0.03 µM, first compound 0.00949 µM): 24.2%
viability, T/C (second compound 0.03 µM, first compound 0.03 µM): 26.3%
viability, T/C (second compound 0.03 µM, first compound 0.0949 µM): 28.2%
viability, T/C (second compound 0.03 µM, first compound 0.3 µM): 28.5%
viability, T/C (second compound 0.0949 µM, first compound 0.000949 µM): 20.1%
viability, T/C (second compound 0.0949 µM, first compound 0.003 µM): 22.7%
viability, T/C (second compound 0.0949 µM, first compound 0.00949 µM): 25.4%
viability, T/C (second compound 0.0949 µM, first compound 0.03 µM): 23.6%
viability, T/C (second compound 0.0949 µM, first compound 0.0949 µM): 26.7%
viability, T/C (second compound 0.0949 µM, first compound 0.3 µM): 25.6%
viability, T/C (second compound 0.3 µM, first compound 0.000949 µM): 20%
viability, T/C (second compound 0.3 µM, first compound 0.003 µM): 22.8%
viability, T/C (second compound 0.3 µM, first compound 0.00949 µM): 24.2%
viability, T/C (second compound 0.3 µM, first compound 0.03 µM): 24.8%
viability, T/C (second compound 0.3 µM, first compound 0.0949 µM): 28.1%
viability, T/C (second compound 0.3 µM, first compound 0.3 µM): 24.6%

Source: PubChem BioAssay AID2060901 (Molecular Pharmacology Branch, DTP, NCI, 2025)
